Assay results reported in patent publication US20260137701A1, “CHOLESTENOIC ACID (CA) AND A SULFATED DERIVATIVE THEREOF, 3[BETA]-SULFATE-5-CHOLESTENOIC ACID (CA3S), AS ENDOGENOUS EPIGENETIC REGULATORS” (priority 2022, published 2026).

Tested on: HepG-2 cells
Experiment: mRNA sequencing, differential expression genes
Assay type: cell-based, human
Settings: 20 μM CA, 6 hours
Method: After culturing HepG-2 cells in DMEM medium with HG for 72 hours followed by treating with 20 μM CA for 0, 3, 6, 12, and 24 hours, genomic DNA from 5×10^7 cells were extracted using QIAamp® DNA Mini Kit (QIAGEN, Hilden, Germany). Each sample, 6 μg, was sent to CD Genomics Co., Ltd (New York, USA) for analysis of WGBS. Total RNA was isolated using the Promega SV total RNA isolation system (Madison, WI, USA) with DNase treatment. Each sample, 2 μg, were sent to CD Genomics Co., Ltd (New York, USA) for analysis of RNA sequencing. The same samples, 2 μg, was used for the first-strand cDNA synthesis as recommended by the manufacturer (Invitrogen, Carlsbad, CA). RT-qPCR was performed using SYBR Green as the indicator on ABI 7500 Fast Real-Time PCR System (Applied Biosystems, Foster City, CA). Amplifications of j-actin or GAPDH were used as internal controls. Relative messenger RNA (mRNA) expression was quantified with the comparative cycle threshold (Ct) method using a sutiable primer set and was expressed as 2-ΔΔCt as described previously.
Total RNA was extracted and purified from HepG-2 cells using SV total RNA isolation system (Promega, Madison, WI). Messenger RNA was purified from total RNA using poly-T oligo-attached magnetic beads. After fragmentation, the first strand cDNA was synthesized using random hexamer primers, followed by the second strand cDNA synthesis using either dUTP for directional library or dTTP for non-directional library. The library was checked with Qubit and real-time PCR for quantification and bioanalyzer for size distribution detection. Quantified libraries will be pooled and sequenced on Illumina® platforms, according to effective library concentration and data amount. Raw data (raw reads) of fastq format were first processed through in-house perl scripts. In this step, clean data (clean reads) were obtained by removing reads containing adapter, reads containing ploy-N and low-quality reads from raw data. At the same time, Q20, Q30 and GC content of the clean data were calculated. All the downstream analyses were based on clean data with high quality. The clean data were aligned to reference genome (GRCh37) using Hisat2 v2.0.5 software. Differential expression genes (DEGs) were performed using the DESeq2 R package (1.20.0). DAVID software (website located at david.ncifcrf.gov/) was used to test the statistical enrichment of DMR related genes in the GO and KEGG pathways.

SMILES: CC(CCC[C@@H](C)[C@H]1CC[C@H]2[C@@H]3CC=C4C[C@@H](O)CC[C@]4(C)[C@H]3CC[C@]12C)C(=O)O (stereo partly drawn) [CA, 3β-hydroxy-5-cholestenoic acid]
- Fold Change ABCF1 (down regulated gene): −1.35 fold
- Fold Change ACTA1 (up regulated gene): 1.32 fold
- Fold Change ACTN4 (up regulated gene): 3.26 fold
- Fold Change ANGPTL8 (down regulated gene): −1.77 fold
- Fold Change ARHGAP17 (up regulated gene): 2.50 fold
- Fold Change ATG16L1 (down regulated gene): −1.32 fold
- Fold Change C2 (down regulated gene): −1.14 fold
- Fold Change C5orf51 (down regulated gene): −1.06 fold
- Fold Change CD99 (up regulated gene): 3.60 fold
- Fold Change COG5 (down regulated gene): −1.44 fold
- Fold Change CPSF1 (down regulated gene): −4.45 fold
- Fold Change CUTA (up regulated gene): 1.76 fold
- Fold Change CYP1A1 (up regulated gene): 1.97 fold
- Fold Change CYP51A1 (down regulated gene): −1.25 fold
- Fold Change DCAF11 (down regulated gene): −1.74 fold
- Fold Change DLG5 (up regulated gene): 1.44 fold
- Fold Change DNHD1 (down regulated gene): −1.21 fold
- Fold Change EEF1A1P13 (up regulated gene): 2.82 fold
- Fold Change EEF1B2 (up regulated gene): 1.29 fold
- Fold Change EHMT2 (up regulated gene): 1.16 fold
- Fold Change FBL (down regulated gene): −1.87 fold
- Fold Change FDFT1 (down regulated gene): −1.30 fold
- Fold Change FLII (up regulated gene): 2.04 fold
- Fold Change FST (up regulated gene): 1.25 fold
- Fold Change FZD1 (up regulated gene): 1.06 fold
- Fold Change GBA (up regulated gene): 2.25 fold
- Fold Change GBP1 (up regulated gene): 1.37 fold
- Fold Change GFUS (down regulated gene): −2.73 fold
- Fold Change GMPR2 (up regulated gene): 3.88 fold
- Fold Change GNL1 (up regulated gene): 1.59 fold
- Fold Change GTF2H1 (up regulated gene): 1.85 fold
- Fold Change GTPBP6 (down regulated gene): −2.08 fold
- Fold Change HMGCR (down regulated gene): −1.55 fold
- Fold Change HMGCS1 (down regulated gene): −2.12 fold
- Fold Change HSD17B7 (down regulated gene): −1.05 fold
- Fold Change HSPA1A (up regulated gene): 1.22 fold
- Fold Change HSPA1B (up regulated gene): 1.16 fold
- Fold Change IBTK (down regulated gene): −2.44 fold
- Fold Change ID3 (down regulated gene): −2.65 fold
- Fold Change IDI1 (down regulated gene): −1.86 fold
- Fold Change INPP5K (up regulated gene): 1.04 fold
- Fold Change IPO4 (down regulated gene): −1.51 fold
- Fold Change IRF9 (up regulated gene): 1.42 fold
- Fold Change LDLR (down regulated gene): −1.46 fold
- Fold Change LFNG (up regulated gene): 1.02 fold
- Fold Change LINC02119 (down regulated gene): −1.39 fold
- Fold Change LOC729973 (down regulated gene): −1.08 fold
- Fold Change LOC107985276 (down regulated gene): −1.32 fold
- Fold Change LOC112268009 (up regulated gene): 1.19 fold
- Fold Change LPCAT1 (down regulated gene): −1.43 fold
- Fold Change MCRIP1 (up regulated gene): 2.17 fold
- Fold Change MINCR (up regulated gene): 1.24 fold
- Fold Change MSMO1 (down regulated gene): −2.30 fold
- Fold Change MT1E (up regulated gene): 1.81 fold
- Fold Change MT1F (up regulated gene): 2.51 fold
- Fold Change MT1G (up regulated gene): 2.43 fold
- Fold Change MT1X (up regulated gene): 2.15 fold
- Fold Change MT2A (up regulated gene): 1.44 fold
- Fold Change MTCH2 (down regulated gene): −2.50 fold
- Fold Change MTMR11 (up regulated gene): 1.48 fold
- Fold Change MVD (down regulated gene): −1.20 fold
- Fold Change MVK (down regulated gene): −1.57 fold
- Fold Change MYEOV (down regulated gene): −1.08 fold
- Fold Change NDUFS1 (up regulated gene): 1.45 fold
- Fold Change NEK10 (up regulated gene): 1.06 fold
